Values after ≈ are worked out from the molar mass of the structure shown.
Key:
[1] = test system: Human keratinocytes (HaCAT); experiment: Protection against UVB induced apoptosis, DNA damage and death (annexin-FITC/PI flow cytometry); type: cell-based; conditions: UVB exposed HaCAT
Experimental: Cells: Human keratinocytes (HaCAT)—cells were maintained as a monolayer culture in Dulbeccos modified minimal essential medium (DMEM) Life technologies, CA, USA) supplemented with 10% (v/v) heat-inactivated foetal bovine serum (FBS; GIBCO/Invitrogen, Carlsbad, Calif.), 100 units/mL penicillin and 100 μg/mL streptomycin (Life technologies) at 37° C. in a humidified 5% CO2 incubator.
Reagents: Dulbeccos modified minimal essential medium (DMEM), Fetal bovine serum (FBS), Annexin-FITC, Propidium Iodide-Apoptosis detection kit, Biovision, USA.
Instrument: Flow Cytometry (BD-FACS-Celesta).
Cells (3×10^5) were pre-treated with different concentrations of test sample for one hour and exposed to UVB. Cells were exposed to UVB rays for 10 min and incubated for 16 hours in DMEM with 2% serum. Cells were labelled with annexin-FITC and propidium iodide […] for 10 minutes in dark and analyzed using flow cytometer (BD FACS-Celesta).

[2] = target: T1, Elastase enzyme from pig pancreas (Sus scrofa, UniProt P00772); experiment: Anti elastase activity (EnzChek DQ elastin fluorescence assay); type: biochemical
T1 construct: purchased; host or cells: pig pancreas
Excerpt: Elastase is one of the […], which digest elastin and other components of the extra cellular matrix and is important both for normal skin development. If this enzyme is not regulated by inhibitor proteins results in wrinkling of skin, premature ageing and carcinogenesis. The Anti-Elastase assay by Enz Chek elastase assay kit determines the elastase inhibitory activity of the products. The assays were done using the EnzChek elastase assay kit. The substrate is DQ elastin soluble bovine neck ligament. DQ elastin is labelled with BODIPY FL dye. The non-fluorescent substrate can be digested by elastase to yield highly fluorescent fragments and in the presence of inhibitor, the fluorescence intensity is quenched. The fluorescence intensity was measured in a microplate reader ([…].)
The assay was performed in a 96 well black microtitre plate. […] 100 μl of the Elastase enzyme solution (final concentration-0.1 U/ml) was added and the fluorescence intensity was measured at Em: 485 nm and Ex: 520 nm after 30 minutes. Enzyme activity of control (buffer) was recorded.
[formula] • B—Fluorescence in the presence of enzyme • BC—Fluorescence in the absence of enzyme activity • T—Fluorescence of enzyme activity in the presence of inhibitor • C—Fluorescence of the inhibitor alone Result

[3] = test system: Collagenase Type IV from Clostridium histolyticum; experiment: Anti collagenase activity (EnzChek DQ gelatin fluorescence assay); type: biochemical
Excerpt: Collagenase is one of the matrix metalloprotease, which digest collagen and other components of the extra cellular matrix (ECM). The ECM serves as a scaffold to stabilize the skin structure, and also helps in proliferation and metabolic functions of the skin cells. Loss of collagen leads to wrinkles and sagging of skin. The principle of the assay of collagenase inhibition is based on the fact that the substrate DQ™ gelatine is conjugated to fluorecein—a fluorescent compound. In DQ™ gelatine, fluorescence is quenched. DQ™ gelatine is efficiently digested by collagenases to yield a fluorescent compound which can be measured. The increase in fluorescence is proportional to enzyme activity. In the presence of an anti collagenase compound the amount of fluorescence will be decreased for a fixed concentration of enzyme and substrate.
• Equipment-BMG FLUOstar Optima (fluorescent Microplate reader) • Reagents: Phosphate buffer (pH 7.4) • Collagenase Enzyme assay kit (Enzchek® collagenase, gelatinase assay kit, Invitrogen, USA) • Microtitre plates—96 well microtitre plates (black)—Corning, USA
The assay was performed in a 96 well black microtitre plate. […] 100 μl of the Collagenase enzyme solution (final concentration-0.4 U/ml) was added and the fluorescence intensity was measured at Em: 485 nm and Ex: 520 nm after 30 minutes. Enzyme activity of control (buffer) was recorded. […]

Human dermal fibroblasts [4] = experiment: Proliferation of fibroblasts (SRB assay); type: cell-based; conditions: concentration of 12.5% (so in the source), 72 hours
Experimental: Human dermal fribroblasts were seeded at a density of 5×10^3 cells/well in DMEM 10% FBS and antibiotics in 96 well plate and allowed to form a monolayer in a humidified incubator at 37° C. and 5% CO2 atmosphere for 24 hours. Cells were treated with different concentration of the extract for 72 hours to assess the cytotoxicity. The viability of fibroblasts were determined by SRB assay (Nature protocols, 2006, 1, 3, 2112-16). Cells in DMEM with 0.1% DMSO was used as […] while media without cells were used as negative control

THP-1 cells = experiment: Cell viability of THP-1 cells in the anti inflammatory assay; type: cell-based, human
[5] = test system: TNF-α secretion by THP-1 human monocytes; experiment: Anti inflammatory activity: LPS induced TNF-α secretion in THP-1 cells (ELISA); type: cell-based; conditions: for % Inhibition (TNF-α): LPS stimulated THP-1, 24 hour
Experimental: Anti inflammatory activity was examined using human monocyte/macrophage cell line THP-1. Monocytes respond to lipo-polysaccharides (LPS) by secreting pro-inflammatory cytokines. Tumour necrosis factor (TNF-α) is one of the principle cytokine which triggers a cascade of inflammatory reactions. The concentration of TNF-α was measured using an Enzyme linked Immunosorbent assay (ELISA). Reduction in TNF-α concentration indicates an anti inflammatory activity of the compound.
Cells: THP1-human monocytes purchased from American Type Culture Collection (ATCC, Manassas, Va.) and maintained as a monolayer culture in Rosewell park memorial institute Medium (RPMI Life technologies, CA, USA) supplemented with 10% (v/v) heat-inactivated foetal bovine serum (FBS; GIBCO/Invitrogen, Carlsbad, Calif.), 100 units/mL penicillin and 100 μg/mL streptomycin (Life technologies) at 37° C. in a humidified 5% CO2 incubator.
ELISA kit: Human TNF ELISA kit, Krishgen Biosciences, USA
1×10^5 THP-1 cells were stimulated with 100 ng with lipopolysacharide (LPS, 0.1 μg/mL) to induce TNF-α secretion. Cells were pre treated with different concentrations of oleanoyl KVK before LPS treatment. The cell supernatants were collected 24 hour after treatment and secreted TNF-α as estimated by cytokine ELISA as described by the manufacturer. Un-stimulated cells were used as negative control. The limit of detection was <1 pg/mL.

[6] = test system: TGF-β secretion by fibroblasts; experiment: TGF-β concentration in fibroblast culture supernatant; type: cell-based, human
[7] = test system: keratinocytes exposed to oxidative stress; experiment: Gene expression in keratinocytes exposed to oxidative stress (quantitative RT-PCR); type: cell-based, human; conditions: cells exposed to oxidative stress
Experimental: (§1) Human dermal fibroblasts and keratinocytes were cultured in 6 well microtiter plates in the presence of 6.25 μg/ml oleanoyl KVK for 24 hours. Untreated cells were used as control. At the end of incubation time, the cells were lysed and RNA was extracted. […] Extracted RNA was treated with DNAse I to remove any contaminating DNA and again extracted using phenol: chloroform: isoamyl alcohol extraction ([…]). Quality of RNA was determined by checking the absorbance at 260/280 nm using a Nanodrop (Thermo). 2 μg of total RNA was taken for cDNA synthesis using Super Script III First-Strand Synthesis System (Life Technologies). Quantitative RT-PCR analysis was performed to determine the expression of brown fat specific genes in Roche Light cycler 96 using SYBR Green master mix (Thermo Scientific). β actin was used as a house keeping gene. The relative RNA abundance of the genes was normalized to the housekeeping β actin gene and expressed as delta delta CT (equivalent to fold change transformed by Log2).

Human dermal fibroblasts [8] = experiment: Gene expression analysis in dermal fibroblasts (quantitative RT-PCR); type: cell-based; conditions: 6.25 μg/ml, 24 hours
Experimental: as §1

collagen in fibroblasts = experiment: Collagen production / collagen staining in fibroblasts; type: cell-based, human
[9] = test system: Human keratinocytes (HaCAT); experiment: ROS scavenging in keratinocytes, heavy metal induced oxidative stress; type: cell-based; conditions: concentration of 12.5% (so in the source)
Experimental: (§2) Cells: Human keratinocytes (HaCAT)—cells were maintained in fibroblast media (Gibco) at 37° C. in a humidified 5% CO2 incubator.
(§3) Reactive oxygen species include a number of molecules that damage DNA and RNA and oxidize proteins and lipids (lipid peroxydation). These reactive molecules contain an oxygen atom/molecule and include H2O2 (hydrogen peroxide), NO (nitric oxide), O2^− ([…]), peroxynitrite (ONOO^−), hydrochlorous acid (HOCl), and hydroxyl radical (OH). 5-(and 6)-chloromethyl-20, 70-dichlorohydrofluorescein diacetate (CM-H2DCFDA) freely permeates the plasma membrane and is hydrolyzed in the cytosol to form the DCFH carboxylate anion. Oxidation results in the formation of fluorescent DCF, which is maximally excited at 495 nm and emits at 520 nm.
Keratinocytes were seeded at 50,000 cells per well in 96 well black plates and allowed to grow as a monolayer for 24 hours. Cells were pre-treated with different concentration of Oleanoyl-KVK for one hour. […] Freshly prepared DCFH-DA reagent was added to all the wells (2 ug/well). The plate was incubated at 37° C. for 30 minutes. Fluorescence was recorded at 485:520, Ex: Em wavelength in FluoStar Optima microplate reader.

keratinocytes = experiment: Gene expression analysis in keratinocytes (quantitative RT-PCR); type: cell-based, human; conditions: 6.25 μg/ml, 24 hours
Experimental: as §1

[10] = test system: Human keratinocytes (HaCAT); experiment: ROS scavenging in keratinocytes, UV induced oxidative stress (DCFH-DA); type: cell-based; conditions: 6.25 μg/ml
Experimental: as §2
Reagents: Keratinocyte media (Gibco) DCFH-DA Instrument: FluoStar Optima microplate reader.
as §3
Keratinocytes were seeded at 50,000 cells per well in 96 well black plates and allowed to grow as a monolayer for 24 hours. Cells were pre-treated with different concentration of Oleanoyl-KVK for one hour. The plate was exposed to UVA radiation for 1 hour. Freshly prepared DCFH-DA reagent was added to all the wells (2 ug/well). The plate was incubated at 37° C. for 30 minutes. Fluorescence was recorded at 485:520, Ex: Em wavelength in FluoStar Optima microplate reader.

T1 sequence (P00772 27-266): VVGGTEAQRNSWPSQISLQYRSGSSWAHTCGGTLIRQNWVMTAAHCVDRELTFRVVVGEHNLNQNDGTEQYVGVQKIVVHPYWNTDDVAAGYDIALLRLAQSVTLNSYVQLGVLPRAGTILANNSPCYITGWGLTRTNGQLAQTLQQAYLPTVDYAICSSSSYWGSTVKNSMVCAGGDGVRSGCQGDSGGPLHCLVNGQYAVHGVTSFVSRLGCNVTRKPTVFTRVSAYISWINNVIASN

## CC(C)[C@H](NC(=O)[C@H](CCCCN)NC(=O)[C@]12CCC(C)(C)C[C@H]1C1=CC[C@@H]3[C@@]4(C)CC[C@H](O)C(C)(C)[C@@H]4CC[C@@]3(C)[C@]1(C)CC2)C(=O)N[C@@H](CCCCN)C(=O)O [Oleanoyl-KVK, Lysine-Valine-Lysine (KVK) conjugated to Oleanolic acid]
[1]; 12.5 μg/ml
  percent protection against UV induced DNA damage and death: 47.9%
  increase in live cells: highest increase in live cells
[1]
  reduction in late apoptosis: concentration dependent reduction in late apoptosis
[1]; maximum at 12.5 μg/ml
  reduction in early apoptosis: concentration dependent reduction in early apoptosis
[2]; 250 μg/ml
  inhibition at 250 µg/mL: 98%
[2]; DQ elastin substrate, 30 minutes, read-out: IC50 anti elastase activity (printed: anti collagenase activity) (converted)
  IC50: 77 µM
[3]; 250 μg/ml
  inhibition of collagenase enzyme activity: 100%
[3]; DQ gelatin substrate, 30 minutes
  IC50 anti collagenase activity: 48.8 µg/mL
Human dermal fibroblasts [4]
  increase in proliferation of fibroblasts: 42.2%
THP-1 cells; 1.56 μg/ml
  Cell viability: 100%
THP-1 cells; 3.12 μg/ml
  Cell viability: 100%
THP-1 cells; 6.25 μg/ml
  Cell viability: 100%
THP-1 cells; 12.5 μg/ml
  Cell viability: 100%
[5]; 1.56 μg/ml
  % Inhibition (TNF-α): 12.14%
[5]; 3.12 μg/ml
  % Inhibition (TNF-α): 12.53%
[5]; 6.25 μg/ml
  % Inhibition (TNF-α): 31.01%
[5]; 12.5 μg/ml
  % Inhibition (TNF-α): 71.03%
[5]; LPS stimulated THP-1, TNF-α ELISA
  IC50 anti inflammatory activity: 9.09 µg/mL (≈ 11.2 µM)
[6]
  TGF-β secretion by fibroblasts: dose dependent increase
[7]
  expression level of matrix metalloprotease 9: down regulated
  expression level of tumor necrosis factor α: down regulated
Human dermal fibroblasts [8]
  expression level of TGF-β: increased
  expression level of collagen: increased
  expression level of hyaluronan synthase: increased
Collagen in fibroblasts
  increase in collagen staining in fibroblasts: 22.8%
[9]
  ROS scavenging, induced by heavy metals: 20.4%
keratinocytes
  gene expression in keratinocytes (FIG. 10: collagen, Elastin, TGF-β, hyaluronan synthase, epidermal growth factor): increased
[10]
  ROS scavenging activity, UV induced stress: 17.1%

From patent publication US10588844B2, “Process for preparing tripeptide containing oleanolic acid and its therapeutic applications thereof” (priority 2017, dated 2020)
